Holding throughout (assay): KinaseProfiler enzyme profiling
Common to all, as to assay type: biochemical

Assay [1] has as its target T1, Lck(h) (Homo sapiens, UniProt P06239).
T1 construct: purchased Eurofins KinaseProfiler
An outline of the steps: (§1)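 Two replicate runs; 70 kinases; in vitro; erianin held at 100 nM throughout the screen.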

The target in assay [2] is T2, CDK12/cyclinK(h) (Homo sapiens, UniProt Q9NYV4).
T2 construct: purchased Eurofins KinaseProfiler
An outline of the steps: as §1

Assay [3] concerns the target T3, CDK18/cyclinY(h) (Homo sapiens, UniProt Q07002).
T3 construct: purchased Eurofins KinaseProfiler
An outline of the steps:
as §1

The target of assay [4] is T4, NEK3(h) (Homo sapiens, UniProt P51956).
T4 construct: purchased Eurofins KinaseProfiler
An outline of the steps:
as §1

For assay [5], the target named is T5, NEK1(h) (Homo sapiens, UniProt Q96PY6).
T5 construct: purchased Eurofins KinaseProfiler
An outline of the steps: as §1

Assay [6] has as its target T6, TAO3(h) (Homo sapiens, UniProt Q9H2K8).
T6 construct: purchased Eurofins KinaseProfiler
An outline of the steps: as §1

Assay [7] concerns the target T7, MAPKAP-K2(h) (Homo sapiens, UniProt P49137).
T7 construct: purchased Eurofins KinaseProfiler
An outline of the steps:
as §1

Assay [8] concerns the target T8, MST1(h) (Homo sapiens, UniProt Q13043).
T8 construct: purchased Eurofins KinaseProfiler
An outline of the steps: as §1

Assay [9] concerns the target T9, CDK7/cyclinH/MAT1(h) (Homo sapiens, UniProt P50613).
T9 construct: purchased Eurofins KinaseProfiler
An outline of the steps:
as §1

Assay [10] addresses T10, ErbB2(h) (Homo sapiens, UniProt P04626).
T10 construct: purchased Eurofins KinaseProfiler
An outline of the steps: as §1

Assay [11] deals with T11, ErbB4(h) (Homo sapiens, UniProt Q15303).
T11 construct: purchased Eurofins KinaseProfiler
An outline of the steps: as §1

Assay [12] concerns the target T12, Axl(h) (Homo sapiens, UniProt P30530).
T12 construct: purchased Eurofins KinaseProfiler
An outline of the steps:
as §1

Assay [13] addresses T13, NIM1(h) (Homo sapiens, UniProt Q8IY84).
T13 construct: purchased Eurofins KinaseProfiler
An outline of the steps: as §1

Assay [14] concerns the target T14, HIPK3(h) (Homo sapiens, UniProt Q9H422).
T14 construct: purchased Eurofins KinaseProfiler
An outline of the steps:
as §1

Assay [15] concerns the target T15, CK1γ1(h) (Homo sapiens, UniProt Q9HCP0).
T15 construct: purchased Eurofins KinaseProfiler
An outline of the steps:
as §1

Assay [16] addresses T16, Aurora-A(h) (Homo sapiens, UniProt O14965).
T16 construct: purchased Eurofins KinaseProfiler
An outline of the steps:
as §1

Assay [17] deals with T17, MELK(h) (Homo sapiens, UniProt Q14680).
T17 construct: purchased Eurofins KinaseProfiler
An outline of the steps: as §1

Assay [18] deals with T18, CDK5/p35(h) (Homo sapiens, UniProt Q00535).
T18 construct: purchased Eurofins KinaseProfiler
An outline of the steps: as §1

Assay [19] deals with T19, DDR2(h) (Homo sapiens, UniProt Q16832).
T19 construct: purchased Eurofins KinaseProfiler
An outline of the steps:
as §1

The target of assay [20] is T20, EphA2(h) (Homo sapiens, UniProt P29317).
T20 construct: purchased Eurofins KinaseProfiler
An outline of the steps: as §1

For assay [21], the target named is T21, FGFR4(h) (Homo sapiens, UniProt P22455).
T21 construct: purchased Eurofins KinaseProfiler
An outline of the steps: as §1

For assay [22], the target named is T22, CaMKIIβ(h) (Homo sapiens, UniProt Q13554).
T22 construct: purchased Eurofins KinaseProfiler
An outline of the steps: as §1

Assay [23] has as its target T23, MKK6(h) (Homo sapiens, UniProt P52564).
T23 construct: purchased Eurofins KinaseProfiler
An outline of the steps: as §1

Assay [24] has as its target T24, Mer(h) (Homo sapiens, UniProt Q12866).
T24 construct: purchased Eurofins KinaseProfiler
An outline of the steps: as §1

In assay [25] the target is T25, DCAMKL3(h) (Homo sapiens, UniProt Q9C098).
T25 construct: purchased Eurofins KinaseProfiler
An outline of the steps: as §1

Assay [26] has as its target T26, EGFR(L858R)(h) (Homo sapiens, UniProt P00533, L858R).
T26 construct: purchased Eurofins KinaseProfiler
An outline of the steps: as §1

Assay [27] deals with T27, DYRK2(h) (Homo sapiens, UniProt Q92630).
T27 construct: purchased Eurofins KinaseProfiler
An outline of the steps: as §1

For assay [28], the target named is T28, CaMKIIδ(h) (Homo sapiens, UniProt Q13557).
T28 construct: purchased Eurofins KinaseProfiler
The settings on record: 100 nM. An outline of the steps: as §1

Assay [29] addresses T29, EphA4(h) (Homo sapiens, UniProt P54764).
T29 construct: purchased Eurofins KinaseProfiler
The settings on record: 100 nM. An outline of the steps:
as §1

Assay [30] deals with T30, Ros(h) (Homo sapiens, UniProt P08922).
T30 construct: purchased Eurofins KinaseProfiler
The settings on record: 100 nM. An outline of the steps:
as §1

The target of assay [31] is T31, Rsk1(h) (Homo sapiens, UniProt Q15418).
T31 construct: purchased Eurofins KinaseProfiler
An outline of the steps: (§2)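 Duplicate in vitro measurements were made for each of 70 profiled kinases exposed to erianin at a fixed 100 nM.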

Assay [32] deals with T32, SGK(h) (Homo sapiens, UniProt O00141).
T32 construct: purchased Eurofins KinaseProfiler
The settings on record: 100 nM. An outline of the steps:
as §1

For assay [33], the target named is T33, CaMKIIα(h) (Homo sapiens, UniProt Q9UQM7).
T33 construct: purchased Eurofins KinaseProfiler
The settings on record: 100 nM. An outline of the steps: as §1

The target in assay [34] is T34, EphB3(h) (Homo sapiens, UniProt P54753).
T34 construct: purchased Eurofins KinaseProfiler
The settings on record: 100 nM. An outline of the steps: as §1

Assay [35] addresses T35, Wee1(h) (Homo sapiens, UniProt P30291).
T35 construct: purchased Eurofins KinaseProfiler
The settings on record: 100 nM. An outline of the steps: as §1

Assay [36] addresses T36, EphA5(h) (Homo sapiens, UniProt P54756).
T36 construct: purchased Eurofins KinaseProfiler
The settings on record: 100 nM. An outline of the steps: as §1

Assay [37] deals with T37, Rsk2(h) (Homo sapiens, UniProt P51812).
T37 construct: purchased Eurofins KinaseProfiler
An outline of the steps: as §2

Assay [38] addresses T38, ZIPK(h) (Homo sapiens, UniProt O43293).
T38 construct: purchased Eurofins KinaseProfiler
The settings on record: 100 nM. An outline of the steps:
as §1

Assay [39] has as its target T39, BTK(h) (Homo sapiens, UniProt Q06187).
T39 construct: purchased Eurofins KinaseProfiler
The settings on record: 100 nM. An outline of the steps:
as §1

Assay [40] addresses T40, TYK2(h) (Homo sapiens, UniProt P29597).
T40 construct: purchased Eurofins KinaseProfiler
The settings on record: 100 nM. An outline of the steps: as §1

In assay [41] the target is T41, KDR(h) (Homo sapiens, UniProt P35968).
T41 construct: purchased Eurofins KinaseProfiler
The settings on record: 100 nM. An outline of the steps: as §1

Assay [42] concerns the target T42, Snk(h) (Homo sapiens, UniProt Q9NYY3).
T42 construct: purchased Eurofins KinaseProfiler
The settings on record: 100 nM. An outline of the steps:
as §1

This passage reports activity results from PMC9986241 (Signal Transduction and Targeted Therapy, 2023).

T28 sequence (Q13557 whole entry): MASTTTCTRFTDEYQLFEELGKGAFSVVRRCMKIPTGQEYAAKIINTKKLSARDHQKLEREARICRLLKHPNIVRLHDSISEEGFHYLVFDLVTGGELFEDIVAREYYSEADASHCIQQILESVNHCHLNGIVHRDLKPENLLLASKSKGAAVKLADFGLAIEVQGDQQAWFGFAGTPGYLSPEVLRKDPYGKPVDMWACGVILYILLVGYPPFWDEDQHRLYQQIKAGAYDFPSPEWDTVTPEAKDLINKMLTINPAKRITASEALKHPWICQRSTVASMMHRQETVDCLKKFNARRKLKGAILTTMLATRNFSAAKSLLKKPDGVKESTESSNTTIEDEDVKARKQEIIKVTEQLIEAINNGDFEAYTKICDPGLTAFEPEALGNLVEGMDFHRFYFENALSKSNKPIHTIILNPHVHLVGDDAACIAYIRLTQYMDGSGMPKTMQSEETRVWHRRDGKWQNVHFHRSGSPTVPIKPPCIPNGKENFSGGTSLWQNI
T8 sequence (Q13043 whole entry): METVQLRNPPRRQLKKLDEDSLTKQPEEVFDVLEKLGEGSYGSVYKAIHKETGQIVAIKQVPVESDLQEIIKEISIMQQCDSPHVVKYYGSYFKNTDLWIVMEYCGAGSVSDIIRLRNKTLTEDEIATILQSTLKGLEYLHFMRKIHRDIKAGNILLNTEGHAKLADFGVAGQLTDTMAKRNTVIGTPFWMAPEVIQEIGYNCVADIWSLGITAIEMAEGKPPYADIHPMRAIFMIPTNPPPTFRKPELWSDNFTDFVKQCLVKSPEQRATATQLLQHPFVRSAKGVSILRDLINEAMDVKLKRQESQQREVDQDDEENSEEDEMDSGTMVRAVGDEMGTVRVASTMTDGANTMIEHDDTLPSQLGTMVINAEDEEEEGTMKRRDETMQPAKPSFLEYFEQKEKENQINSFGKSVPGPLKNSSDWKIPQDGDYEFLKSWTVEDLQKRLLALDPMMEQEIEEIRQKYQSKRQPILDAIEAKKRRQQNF
T15 sequence (Q9HCP0 whole entry): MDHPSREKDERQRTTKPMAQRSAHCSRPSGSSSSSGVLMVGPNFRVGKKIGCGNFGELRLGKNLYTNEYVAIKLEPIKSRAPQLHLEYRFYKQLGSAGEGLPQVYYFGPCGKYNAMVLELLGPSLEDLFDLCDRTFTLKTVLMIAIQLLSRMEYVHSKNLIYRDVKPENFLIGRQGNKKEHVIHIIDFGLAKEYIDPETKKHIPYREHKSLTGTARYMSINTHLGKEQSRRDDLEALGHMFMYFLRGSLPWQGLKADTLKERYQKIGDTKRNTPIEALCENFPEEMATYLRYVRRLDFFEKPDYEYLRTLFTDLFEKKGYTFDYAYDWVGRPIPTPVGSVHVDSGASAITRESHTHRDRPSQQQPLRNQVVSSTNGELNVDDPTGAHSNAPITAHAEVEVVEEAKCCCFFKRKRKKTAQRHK
T34 sequence (P54753 34-998): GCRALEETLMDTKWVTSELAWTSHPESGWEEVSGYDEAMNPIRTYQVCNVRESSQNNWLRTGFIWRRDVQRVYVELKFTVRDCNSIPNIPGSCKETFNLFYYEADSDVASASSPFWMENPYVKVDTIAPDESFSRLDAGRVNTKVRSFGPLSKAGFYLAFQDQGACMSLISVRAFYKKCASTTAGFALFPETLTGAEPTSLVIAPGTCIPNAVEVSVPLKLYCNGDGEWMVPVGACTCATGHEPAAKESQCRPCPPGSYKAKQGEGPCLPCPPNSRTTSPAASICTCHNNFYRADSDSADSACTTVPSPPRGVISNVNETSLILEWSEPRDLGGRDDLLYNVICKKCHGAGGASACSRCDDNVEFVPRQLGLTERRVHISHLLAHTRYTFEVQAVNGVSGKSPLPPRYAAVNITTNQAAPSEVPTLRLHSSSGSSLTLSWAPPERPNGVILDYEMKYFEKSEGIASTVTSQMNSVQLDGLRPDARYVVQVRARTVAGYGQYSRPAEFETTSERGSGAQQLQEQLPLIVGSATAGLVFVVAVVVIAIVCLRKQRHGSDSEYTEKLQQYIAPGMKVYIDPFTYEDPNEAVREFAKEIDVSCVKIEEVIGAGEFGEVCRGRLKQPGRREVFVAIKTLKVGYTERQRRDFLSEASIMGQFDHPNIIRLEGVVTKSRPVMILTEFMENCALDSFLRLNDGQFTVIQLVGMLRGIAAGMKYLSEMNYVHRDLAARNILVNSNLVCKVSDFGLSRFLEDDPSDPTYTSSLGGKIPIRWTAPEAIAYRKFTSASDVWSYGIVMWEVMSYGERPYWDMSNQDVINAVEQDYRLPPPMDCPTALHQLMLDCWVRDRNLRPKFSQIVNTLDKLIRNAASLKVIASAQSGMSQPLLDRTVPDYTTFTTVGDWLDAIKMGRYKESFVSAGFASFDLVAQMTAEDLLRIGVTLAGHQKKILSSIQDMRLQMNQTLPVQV
T4 sequence (P51956 whole entry): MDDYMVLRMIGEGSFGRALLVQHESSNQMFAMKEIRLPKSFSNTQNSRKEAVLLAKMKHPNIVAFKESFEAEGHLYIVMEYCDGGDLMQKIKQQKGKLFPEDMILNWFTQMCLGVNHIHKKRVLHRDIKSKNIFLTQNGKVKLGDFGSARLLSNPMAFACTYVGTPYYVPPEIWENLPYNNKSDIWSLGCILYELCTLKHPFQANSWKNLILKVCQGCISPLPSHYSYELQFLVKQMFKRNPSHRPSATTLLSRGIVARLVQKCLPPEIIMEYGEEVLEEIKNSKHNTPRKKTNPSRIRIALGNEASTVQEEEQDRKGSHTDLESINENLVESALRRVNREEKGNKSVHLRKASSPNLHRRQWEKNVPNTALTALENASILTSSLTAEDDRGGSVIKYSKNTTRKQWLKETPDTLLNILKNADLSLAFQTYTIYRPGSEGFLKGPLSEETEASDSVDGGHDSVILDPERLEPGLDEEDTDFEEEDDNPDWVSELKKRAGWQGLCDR
T20 sequence (P29317 24-976): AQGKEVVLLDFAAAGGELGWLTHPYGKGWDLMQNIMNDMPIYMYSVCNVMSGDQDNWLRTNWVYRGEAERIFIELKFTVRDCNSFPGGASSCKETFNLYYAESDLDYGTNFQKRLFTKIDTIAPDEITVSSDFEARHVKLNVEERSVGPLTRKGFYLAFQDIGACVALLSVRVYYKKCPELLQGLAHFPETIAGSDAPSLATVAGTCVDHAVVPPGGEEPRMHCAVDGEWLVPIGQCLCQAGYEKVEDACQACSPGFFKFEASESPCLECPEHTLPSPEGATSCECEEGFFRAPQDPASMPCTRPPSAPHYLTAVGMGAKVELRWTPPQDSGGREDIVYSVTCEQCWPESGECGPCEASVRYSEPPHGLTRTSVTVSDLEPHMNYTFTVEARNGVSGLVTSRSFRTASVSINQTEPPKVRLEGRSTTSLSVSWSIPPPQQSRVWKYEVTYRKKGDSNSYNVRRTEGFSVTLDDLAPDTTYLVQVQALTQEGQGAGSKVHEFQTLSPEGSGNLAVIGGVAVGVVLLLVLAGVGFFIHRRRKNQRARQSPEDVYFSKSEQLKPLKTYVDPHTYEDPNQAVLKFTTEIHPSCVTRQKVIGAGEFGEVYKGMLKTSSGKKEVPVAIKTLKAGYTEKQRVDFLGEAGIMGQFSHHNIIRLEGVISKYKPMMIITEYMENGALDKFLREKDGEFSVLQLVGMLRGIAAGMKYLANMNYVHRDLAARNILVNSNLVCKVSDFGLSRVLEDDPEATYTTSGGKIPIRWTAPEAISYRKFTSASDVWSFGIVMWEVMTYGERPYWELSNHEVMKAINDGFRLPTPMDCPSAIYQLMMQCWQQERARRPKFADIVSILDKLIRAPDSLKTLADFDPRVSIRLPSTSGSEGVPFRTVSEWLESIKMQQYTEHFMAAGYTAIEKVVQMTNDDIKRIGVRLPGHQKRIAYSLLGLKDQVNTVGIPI
T33 sequence (Q9UQM7 whole entry): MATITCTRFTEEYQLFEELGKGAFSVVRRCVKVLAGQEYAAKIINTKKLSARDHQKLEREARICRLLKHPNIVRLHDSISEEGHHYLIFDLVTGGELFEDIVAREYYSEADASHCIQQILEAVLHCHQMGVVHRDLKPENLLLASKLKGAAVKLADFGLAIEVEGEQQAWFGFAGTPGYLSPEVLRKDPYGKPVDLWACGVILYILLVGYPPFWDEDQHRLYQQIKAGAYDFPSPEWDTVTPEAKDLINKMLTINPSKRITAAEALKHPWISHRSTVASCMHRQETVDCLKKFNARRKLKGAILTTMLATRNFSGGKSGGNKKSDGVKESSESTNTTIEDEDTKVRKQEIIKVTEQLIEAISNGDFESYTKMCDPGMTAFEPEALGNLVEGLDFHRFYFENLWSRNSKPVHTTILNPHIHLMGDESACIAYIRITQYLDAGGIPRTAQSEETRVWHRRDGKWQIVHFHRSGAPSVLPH
T17 sequence (Q14680 whole entry): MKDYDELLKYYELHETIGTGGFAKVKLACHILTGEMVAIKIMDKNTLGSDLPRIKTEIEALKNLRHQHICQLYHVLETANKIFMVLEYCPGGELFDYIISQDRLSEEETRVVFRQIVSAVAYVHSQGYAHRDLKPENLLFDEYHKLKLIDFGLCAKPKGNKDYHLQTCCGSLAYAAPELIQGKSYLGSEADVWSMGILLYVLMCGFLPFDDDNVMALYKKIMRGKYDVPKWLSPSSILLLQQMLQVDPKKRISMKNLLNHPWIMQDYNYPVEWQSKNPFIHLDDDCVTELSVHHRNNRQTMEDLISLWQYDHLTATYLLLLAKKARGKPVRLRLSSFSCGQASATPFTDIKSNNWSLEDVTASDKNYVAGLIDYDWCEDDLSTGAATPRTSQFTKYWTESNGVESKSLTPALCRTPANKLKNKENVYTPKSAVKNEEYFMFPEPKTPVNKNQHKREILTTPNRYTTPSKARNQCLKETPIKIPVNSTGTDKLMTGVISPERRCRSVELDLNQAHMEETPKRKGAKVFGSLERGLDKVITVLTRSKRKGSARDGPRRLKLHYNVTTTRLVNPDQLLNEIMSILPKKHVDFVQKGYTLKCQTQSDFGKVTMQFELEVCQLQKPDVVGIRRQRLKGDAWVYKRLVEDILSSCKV

As for `C=C1C(=O)[C@]23[C@H](O)[C@H]1CC[C@H]2[C@@]12CO[C@]3(O)[C@@H](O)[C@@H]1C(C)(C)CC[C@@H]2O` [Oridonin], the activity at 10 µM in [1] is 89%; in [2] it was 98%; in [3], 65%; in assay [4], 64%; in assay [5], 77%; in [6] it was 66%. Besides, the activity at 10 µM in [7] came to 85%; in [8], 65%; in assay [9], 69%; in [10], 112%; in assay [11] it was 91%.
For `COc1cc2oc(-c3ccc(O)c(O)c3)cc(=O)c2c(O)c1OC` [Cirsiliol], the activity at 10 µM in assay [12] was found to be 97%; in assay [13] it was 121%; in [14], 106%; in assay [15], 103%; in assay [16] it was 124%; in [17], 100%. Further, the activity at 10 µM in [18] was found to be 99%; in assay [19], 106%; in assay [20] it was 97%; in [21] it was 87%; in [22], 104%; in [23], 112%. The activity at 10 µM is 109% in [24], 109% in assay [25], 107% in [26] and 97% in assay [27].
Consider `COc1ccc(CCc2cc(OC)c(OC)c(OC)c2)cc1O` [Erianin], for which the activity at 0.1 µM turned out to be 103% in assay [28]; 93% in [29]; 103% in [30]; 90% in assay [31]; 122% in assay [32]; 90% in assay [33]. The activity at 0.1 µM in assay [34] was 95%; in assay [35], 111%; in assay [36], 108%; in [37] it was 106%; in assay [38], 111%; in assay [39], 104%. Further, the activity at 0.1 µM was 100% in assay [40], 96% in [41] and 109% in assay [42].
